From US11680060B2, “Bicycloheptane pyrrolidine orexin receptor agonists” (Merck Sharp & Dohme LLC, priority 2020, dated 2023)

Molecular target: human OX2R (Homo sapiens (Human), UniProt O43614)
Assay: IPOne (IP-1) assay in CHO cells expressing human OX2R
Assay type: cell-based
Details: CHO cells expressing human OX2R; IP-One detection; 2 hours incubation; EC50 = inflection point of four parameter logistic fit; read-out: hOX2R_IP_IC50
Excerpt: The utility of the compounds in accordance with the present invention as orexin receptor OX1R and/or OX2R agonists may be readily determined without undue experimentation by methodology well known in the art. Both the OX1R and/or OX2R G-coupled protein receptors (GPCRs) couple through the Gαq signaling pathway, which ultimately promotes calcium mobilization via inositol triphosphate (IP3) production. The half-life of IP-3 is relatively short, being rapidly metabolized to inositol monophosphate (IP-1), which can be readily detected using a commercially available assay kit (IP-One; Cisbio; cat #621PAPEC) coupled with a cell line expressing the target receptor(s) of interest. The utility of the compounds in accordance with the present invention as orexin receptor OX1R and/or OX2R agonists may be determined utilizing this assay.
In a typical experiment, the OX1 and OX2 receptor agonist activity is determined in accordance with the following general experimental method. Chinese hamster ovary (CHO) cells expressing human OX1R and/or the human OX2R were grown in Iscove's modified DMEM containing glutaMAX™, 1% G418, 100 U/mL penicillin, 100 μg/mL streptomycin and 10% heat-inactivated qualified fetal bovine serum (FBS). The OX2R cells were seeded at 10,000 cells/well/50 μL and the OX1R cells were seeded at 20,000 cells/well/50 μL into 384-well white tissue culture plates (Greiner; cat #781080). All cell/media reagents were from GIBCO-Invitrogen Corp. The seeded cell plate(s) were incubated at 37° C. with 5% CO2 and 85% humidity for 20-24 hours. On the day of the assay, assay-ready compound plates were prepared using an acoustic liquid handler (ECHO; Labcyte), which dispensed sufficient volume of test compound stock (10 mM in DMSO) or 100% DMSO to prepare 10 point, ½-log dilutions in a final volume of 202.5 nL/well in all test wells of a 384-well diamond plate (Labcyte). Following completion of assay-ready plates, importantly, the next three steps were performed with minimal delay: 1) 20 μl of 1× stimulation buffer was added to the compound plate using a Multidrop Combi (small cassette, Thermo Fisher Scientific cat #24073290); 2) culture medium was removed from the cell plate using the Bluewasher plate washer (gentle spin; BlueCatBio); 3) 14 μl of compound/stimulation buffer mixture was added to the cell plate using a Bravo liquid handler (Agilent) prior to incubating cell plates at 37° C. with 5% CO2 and 85% humidity for 1 or 2 hours (OX1R and OX2R, respectively). During this incubation, IP-one detection reagents were prepared (38:1:1 lysis buffer:D2:AB-cryptate reagents). Six μL of mixed detection reagents were added to the cell plate using a Multidrop Combi (small cassette, Thermo Fisher Scientific cat #24073290) and incubated 60 minutes at room temperature in the dark. Fluorescence signal was detected using an Envision plate reader (Perkin Elmer) [LANCE/DELFIA Dual Enh (Em: APC 665; Ex: Cy5 620)].
For each compound, data were fit to a four parameter logistic fit (ActivityBase software) and the EC50 was reported as the inflection point of the resulting curve. Percent effect for each test compound was determined as the percentage of sample raw value/mean max effect, where the mean max effect was derived from the mean raw value of 32 control wells per assay plate (using Orexin A (cat #003-30) at 1 μM for human OX1R and a reference compound at 1 uM with 100% activity previously established by comparison to Orexin A for human OX2R). The intrinsic orexin receptor agonist activity of a compound which may be used in the present invention may be determined by these assays.

Sequence of human OX2R (O43614 whole entry): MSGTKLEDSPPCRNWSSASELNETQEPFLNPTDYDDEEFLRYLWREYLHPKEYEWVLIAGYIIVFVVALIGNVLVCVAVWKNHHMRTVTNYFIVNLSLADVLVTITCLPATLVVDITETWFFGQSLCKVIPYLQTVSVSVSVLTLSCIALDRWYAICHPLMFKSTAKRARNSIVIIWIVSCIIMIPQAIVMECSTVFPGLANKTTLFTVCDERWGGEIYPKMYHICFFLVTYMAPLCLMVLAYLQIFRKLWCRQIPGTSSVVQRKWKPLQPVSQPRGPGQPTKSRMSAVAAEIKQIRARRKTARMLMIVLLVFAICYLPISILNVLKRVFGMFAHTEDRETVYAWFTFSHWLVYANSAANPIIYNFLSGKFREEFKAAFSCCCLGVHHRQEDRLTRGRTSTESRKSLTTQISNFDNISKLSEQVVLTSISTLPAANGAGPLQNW

Row | IC50 [nM] | SMILES
1 | 2 | COC(=O)N1[C@H](C)C[C@H](NS(=O)(=O)CF)[C@@H]1CO[C@H]1CC[C@@]2(c3ncc(Br)cn3)C[C@H]2C1 (single isomer, unassigned) [Example 87]
2 | 2.6 | COC(=O)N1[C@H](C(F)(F)F)C[C@H](NS(C)(=O)=O)[C@@H]1CO[C@H]1CC[C@@]2(c3ncc(F)cn3)C[C@H]2C1 (single isomer, unassigned) [Example 133]
3 | 0.6 | COC(=O)N1[C@H](C(F)F)C[C@H](NS(=O)(=O)CF)[C@@H]1CO[C@H]1CC[C@@]2(c3ncc(F)cn3)C[C@H]2C1 (single isomer, unassigned) [Example 113]
4 | 19.6 | CC(C)OC(=O)N1[C@H](C)C[C@H](NS(C)(=O)=O)[C@@H]1CO[C@@H]1CC[C@]2(c3ncc(Cl)cn3)C[C@@H]2C1 (single isomer, unassigned) [Example 150]

Same assay, conditions: CHO, percentage of mean max effect of a reference compound at 1 uM (100% activity by comparison to Orexin A), human OX2R; read-out: Emax (%)

Row | SMILES | Emax [%]
5 | COC(=O)N1[C@H](C(F)(F)F)C[C@H](NS(C)(=O)=O)[C@@H]1CO[C@H]1CC[C@@]2(c3ncc(F)cn3)C[C@H]2C1 (single isomer, unassigned) [Example 133] | 101
6 | CCC(OC(=O)N1[C@H](C)C[C@H](NS(C)(=O)=O)[C@@H]1CO[C@H]1CC[C@@]2(c3ncc(F)cn3)C[C@H]2C1)C(F)F (stereo partly drawn) [Example 50, 1,1-difluorobutan-2-yl (2R,3S,5R)-2-((((1S,3S,6R)-6-(5-fluoropyrimidin-2-yl)bicyclo[4.1.0]heptan-3-yl)oxy)methyl)-5-methyl-3-(methylsulfonamido)pyrrolidine-1-carboxylate] | 104
7 | C[C@@H]1C[C@H](NS(C)(=O)=O)[C@H](CO[C@H]2CC[C@@]3(c4ncc(F)cn4)C[C@H]3C2)N1C(=O)OCC(F)(F)F [Example 65, 2,2,2-trifluoroethyl (2R,3S,5R)-2-((((1S,3S,6R)-6-(5-fluoropyrimidin-2-yl)bicyclo[4.1.0]heptan-3-yl)oxy)methyl)-5-methyl-3-(methylsulfonamido)pyrrolidine-1-carboxylate] | 102
8 | CC(C)OC(=O)N1[C@H](C)C[C@H](NS(=O)(=O)N(C)C)[C@@H]1COC1CCC2(c3ncccn3)CC2C1 (stereo partly drawn) [Example 174, isopropyl (2R,3S,5R)-3-((N,N-dimethylsulfamoyl)amino)-5-methyl-2-(((6-(pyrimidin-2-yl)bicyclo[4.1.0]heptan-3-yl)oxy)methyl)pyrrolidine-1-carboxylate] | 95.4
9 | COC(=O)N1[C@H](C)C[C@H](NS(=O)(=O)C(C)C)[C@@H]1CO[C@@H]1CC[C@]2(c3ncc(F)cn3)C[C@@H]2C1 [Example 46, methyl (2R,3S,5R)-2-((((1R,3R,6S)-6-(5-fluoropyrimidin-2-yl)bicyclo[4.1.0]heptan-3-yl)oxy)methyl)-5-methyl-3-((1-methylethyl)sulfonamido)pyrrolidine-1-carboxylate] | 100
10 | COC(=O)N1[C@H](C)C[C@H](NS(=O)(=O)N(C)C)[C@@H]1COC1CCC2(c3ncccn3)C(C1)C2(F)F (stereo partly drawn) [Example 7, methyl (2R,3S,5R)-2-(((7,7-difluoro-6-(pyrimidin-2-yl)bicyclo[4.1.0]heptan-3-yl)oxy)methyl)-3-((N,N-dimethylsulfamoyl)amino)-5-methylpyrrolidine-1-carboxylate] | 39.4
11 | COC(=O)N1[C@H](C(F)F)C[C@H](NS(=O)(=O)CF)[C@@H]1CO[C@H]1CC[C@@]2(c3ncc(F)cn3)C[C@H]2C1 (single isomer, unassigned) [Example 113] | 103
12 | COC(=O)N1[C@H](C)C[C@H](NS(=O)(=O)C(F)F)[C@@H]1CO[C@@H]1CC[C@]2(c3ncccn3)C[C@@H]2C1 [Example 69, methyl (2R,3S,5R)-3-((difluoromethyl)sulfonamido)-5-methyl-2-((((1R,3R,6S)-6-(pyrimidin-2-yl)bicyclo[4.1.0]heptan-3-yl)oxy)methyl)pyrrolidine-1-carboxylate] | 101
13 | C[C@@H]1C[C@H](NS(C)(=O)=O)[C@H](CO[C@H]2CC[C@@]3(c4ncc(F)cn4)C[C@H]3C2)N1C(=O)OC[C@H]1[C@H](C)C1(F)F [Example 55, ((1R,3S)-2,2-difluoro-3-methylcyclopropyl)methyl (2R,3S,5R)-2-((((1S,3S,6R)-6-(5-fluoropyrimidin-2-yl)bicyclo[4.1.0]heptan-3-yl)oxy)methyl)-5-methyl-3-(methylsulfonamido)pyrrolidine-1-carboxylate] | 105
14 | CC(C)OC(=O)N1[C@H](C)C[C@H](NS(C)(=O)=O)[C@@H]1CO[C@@H]1CC[C@]2(c3ncc(Cl)cn3)C[C@@H]2C1 (single isomer, unassigned) [Example 150] | 102
15 | CC(C)OC(=O)N1[C@H](C(F)F)C[C@H](NS(C)(=O)=O)[C@@H]1CO[C@H]1CC[C@@]2(c3ncc(F)cn3)C[C@H]2C1 [Example 119, isopropyl (2R,3S,5S)-5-(difluoromethyl)-2-((((1S,3S,6R)-6-(5-fluoropyrimidin-2-yl)bicyclo[4.1.0]heptan-3-yl)oxy)methyl)-3-(methylsulfonamido)pyrrolidine-1-carboxylate] | 100
16 | COC(=O)N1[C@H](C)C[C@H](NS(=O)(=O)N(C)C)[C@@H]1COC1CCC2(c3cnccn3)CC2C1 (stereo partly drawn) [Example 10, methyl (2R,3S,5R)-3-((N,N-dimethylsulfamoyl)amino)-5-methyl-2-(((6-(pyrazin-2-yl)bicyclo[4.1.0]heptan-3-yl)oxy)methyl)pyrrolidine-1-carboxylate] | 85.6

Continued, values first:

Row | Emax [%] | SMILES
17 | 102 | COC(=O)N1[C@H](C)C[C@H](NS(=O)(=O)CF)[C@@H]1CO[C@H]1CC[C@@]2(c3ncc(Br)cn3)C[C@H]2C1 (single isomer, unassigned) [Example 87]
18 | 101 | COC(=O)N1[C@H](C)C[C@H](NS(C)(=O)=O)[C@@H]1CO[C@H]1CC[C@@]2(c3ncc(F)cn3)C[C@H]2C1 [Example 137, methyl (2R,3S,5R)-2-((((1S,3S,6R)-6-(5-fluoropyrimidin-2-yl)bicyclo[4.1.0]heptan-3-yl)oxy)methyl)-5-methyl-3-(methylsulfonamido)pyrrolidine-1-carboxylate]
19 | 91.7 | COC(=O)N1[C@H](C)C[C@H](NS(C)(=O)=O)[C@@H]1COC1CCC2(c3ncc(Cl)c(C(F)(F)F)n3)CC2C1 (stereo partly drawn) [Example 72, methyl (2R,3S,5R)-2-(((6-(5-chloro-4-(trifluoromethyl)pyrimidin-2-yl)bicyclo[4.1.0]heptan-3-yl)oxy)methyl)-5-methyl-3-(methylsulfonamido)pyrrolidine-1-carboxylate]
20 | 104 | C[C@@H]1C[C@H](NS(C)(=O)=O)[C@H](CO[C@H]2CC[C@@]3(c4ncc(F)cn4)C[C@H]3C2)N1C(=O)O[C@H]1COC[C@@H]1F [Example 56, (3S,4S)-4-fluorotetrahydrofuran-3-yl (2R,3S,5R)-2-((((1S,3S,6R)-6-(5-fluoropyrimidin-2-yl)bicyclo[4.1.0]heptan-3-yl)oxy)methyl)-5-methyl-3-(methylsulfonamido)pyrrolidine-1-carboxylate]
21 | 101 | COC(=O)N1[C@H](C)C[C@H](NS(=O)(=O)C(F)F)[C@@H]1CO[C@H]1CC[C@@]2(c3ncc(Cl)cn3)C[C@H]2C1 [Example 78, methyl (2R,3S,5R)-2-((((1S,3S,6R)-6-(5-chloropyrimidin-2-yl)bicyclo[4.1.0]heptan-3-yl)oxy)methyl)-3-((difluoromethyl)sulfonamido)-5-methylpyrrolidine-1-carboxylate]
22 | 103 | COC(=O)N1[C@H](C)C[C@H](NS(=O)(=O)C2CC2)[C@@H]1CO[C@H]1CC[C@@]2(c3ncc(F)cn3)C[C@H]2C1 [Example 42, methyl (2R,3S,5R)-3-(cyclopropanesulfonamido)-2-((((1S,3S,6R)-6-(5-fluoropyrimidin-2-yl)bicyclo[4.1.0]heptan-3-yl)oxy)methyl)-5-methylpyrrolidine-1-carboxylate]
23 | 102 | C[C@@H]1C[C@H](NS(C)(=O)=O)[C@H](CO[C@H]2CC[C@@]3(c4ncc(F)cn4)C[C@H]3C2)N1C(=O)OCC1(C)CC1(F)F (stereo partly drawn) [Example 57, (2,2-difluoro-1-methylcyclopropyl)methyl (2R,3S,5R)-2-((((1S,3S,6R)-6-(5-fluoropyrimidin-2-yl)bicyclo[4.1.0]heptan-3-yl)oxy)methyl)-5-methyl-3-(methylsulfonamido)pyrrolidine-1-carboxylate]

Same assay, conditions: percentage of mean max effect of a reference compound at 1 uM (100% activity by comparison to Orexin A), human OX2R

Row | Emax (%) | SMILES
24 | 100.9 | CC(C)OC(=O)N1[C@H](C)C[C@H](NS(=O)(=O)C(F)F)[C@@H]1COC1CC[C@]2(c3ncc(F)cn3)CC2C1 (stereo partly shown) [Example 110]
25 | 100.9 | COC(=O)N1[C@H](C)C[C@H](NS(C)(=O)=O)[C@@H]1CO[C@H]1CC[C@@]2(c3ncccn3)C[C@H]2C1 (single isomer, unassigned) [Example 19]
